From PMC12420824, “Discovery of a selective alpha-kinase 1 inhibitor for the rare genetic disease ROSAH syndrome” (Nature Communications, 2025)
Several values for one entry are separate records, joined by “and”; a condition that tells them apart may be missing. Equal values may be shown once.

What was measured:
[1] = target: STK22D/TSSK1 (Homo sapiens, UniProt Q9BXA7); test: biochemical; settings: read-out: % Enzyme Activity (relative to DMSO control), 10 uM
Source text: (§1) Additionally, a 10-dose dilution series of staurosporine and other enzyme-appropriate compounds were included as positive control inhibitors.

[2] = target: CAMK2b (Homo sapiens, UniProt Q13554); test: HotSpot kinase assay; settings: read-out: % Enzyme Activity (relative to DMSO control), 10 uM
Source text: as §1

[3] = target: CAMK1d (Homo sapiens, UniProt Q8IU85); test: HotSpot kinase assay; settings: read-out: % Enzyme Activity (relative to DMSO control), 10 uM
Source text: as §1

[4] = target: LATS2 (Homo sapiens, UniProt Q9NRM7); test: HotSpot kinase assay; settings: read-out: % Enzyme Activity (relative to DMSO control), 10 uM
Source text: as §1

[5] = target: IRR/INSRR (Homo sapiens, UniProt P14616); test: HotSpot kinase assay; settings: read-out: % Enzyme Activity (relative to DMSO control), 10 uM
Sequence of IRR/INSRR (P14616 27-1297): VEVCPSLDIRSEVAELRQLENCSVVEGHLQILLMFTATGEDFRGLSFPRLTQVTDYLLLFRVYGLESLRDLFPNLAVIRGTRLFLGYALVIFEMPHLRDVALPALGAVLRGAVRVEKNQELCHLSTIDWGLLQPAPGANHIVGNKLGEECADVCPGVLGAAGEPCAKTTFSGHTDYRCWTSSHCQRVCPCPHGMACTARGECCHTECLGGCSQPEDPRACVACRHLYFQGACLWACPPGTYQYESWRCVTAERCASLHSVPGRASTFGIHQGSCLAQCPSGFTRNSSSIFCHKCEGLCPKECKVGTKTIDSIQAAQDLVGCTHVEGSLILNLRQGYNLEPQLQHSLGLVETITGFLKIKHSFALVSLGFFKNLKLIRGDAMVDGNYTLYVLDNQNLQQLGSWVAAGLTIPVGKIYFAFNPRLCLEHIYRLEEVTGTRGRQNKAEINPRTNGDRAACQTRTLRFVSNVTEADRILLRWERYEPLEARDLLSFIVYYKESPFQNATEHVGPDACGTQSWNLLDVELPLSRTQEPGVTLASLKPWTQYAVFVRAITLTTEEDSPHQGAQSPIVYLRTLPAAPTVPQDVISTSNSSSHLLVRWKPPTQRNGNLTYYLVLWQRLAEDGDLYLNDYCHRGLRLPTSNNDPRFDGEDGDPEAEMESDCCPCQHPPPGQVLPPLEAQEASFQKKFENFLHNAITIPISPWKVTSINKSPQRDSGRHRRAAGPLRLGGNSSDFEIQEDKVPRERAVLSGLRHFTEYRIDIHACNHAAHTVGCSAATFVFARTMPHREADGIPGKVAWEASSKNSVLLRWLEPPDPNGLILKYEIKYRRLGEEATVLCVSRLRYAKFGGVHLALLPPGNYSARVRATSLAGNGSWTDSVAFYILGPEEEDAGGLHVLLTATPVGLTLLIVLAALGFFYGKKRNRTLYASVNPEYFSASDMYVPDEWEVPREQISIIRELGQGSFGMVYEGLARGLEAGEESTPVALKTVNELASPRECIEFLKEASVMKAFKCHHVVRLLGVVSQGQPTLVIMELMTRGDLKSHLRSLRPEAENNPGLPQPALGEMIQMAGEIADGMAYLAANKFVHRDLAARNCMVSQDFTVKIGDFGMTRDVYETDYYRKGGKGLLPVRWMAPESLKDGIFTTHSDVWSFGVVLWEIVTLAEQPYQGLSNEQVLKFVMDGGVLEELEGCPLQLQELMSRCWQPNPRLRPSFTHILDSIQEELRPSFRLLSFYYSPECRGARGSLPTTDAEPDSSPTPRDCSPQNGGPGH
Source text: as §1

[6] = target: MLCK/MYLK (Homo sapiens, UniProt Q15746); test: HotSpot kinase assay; settings: read-out: % Enzyme Activity (relative to DMSO control), 10 uM
Sequence of MLCK/MYLK (Q15746 whole entry): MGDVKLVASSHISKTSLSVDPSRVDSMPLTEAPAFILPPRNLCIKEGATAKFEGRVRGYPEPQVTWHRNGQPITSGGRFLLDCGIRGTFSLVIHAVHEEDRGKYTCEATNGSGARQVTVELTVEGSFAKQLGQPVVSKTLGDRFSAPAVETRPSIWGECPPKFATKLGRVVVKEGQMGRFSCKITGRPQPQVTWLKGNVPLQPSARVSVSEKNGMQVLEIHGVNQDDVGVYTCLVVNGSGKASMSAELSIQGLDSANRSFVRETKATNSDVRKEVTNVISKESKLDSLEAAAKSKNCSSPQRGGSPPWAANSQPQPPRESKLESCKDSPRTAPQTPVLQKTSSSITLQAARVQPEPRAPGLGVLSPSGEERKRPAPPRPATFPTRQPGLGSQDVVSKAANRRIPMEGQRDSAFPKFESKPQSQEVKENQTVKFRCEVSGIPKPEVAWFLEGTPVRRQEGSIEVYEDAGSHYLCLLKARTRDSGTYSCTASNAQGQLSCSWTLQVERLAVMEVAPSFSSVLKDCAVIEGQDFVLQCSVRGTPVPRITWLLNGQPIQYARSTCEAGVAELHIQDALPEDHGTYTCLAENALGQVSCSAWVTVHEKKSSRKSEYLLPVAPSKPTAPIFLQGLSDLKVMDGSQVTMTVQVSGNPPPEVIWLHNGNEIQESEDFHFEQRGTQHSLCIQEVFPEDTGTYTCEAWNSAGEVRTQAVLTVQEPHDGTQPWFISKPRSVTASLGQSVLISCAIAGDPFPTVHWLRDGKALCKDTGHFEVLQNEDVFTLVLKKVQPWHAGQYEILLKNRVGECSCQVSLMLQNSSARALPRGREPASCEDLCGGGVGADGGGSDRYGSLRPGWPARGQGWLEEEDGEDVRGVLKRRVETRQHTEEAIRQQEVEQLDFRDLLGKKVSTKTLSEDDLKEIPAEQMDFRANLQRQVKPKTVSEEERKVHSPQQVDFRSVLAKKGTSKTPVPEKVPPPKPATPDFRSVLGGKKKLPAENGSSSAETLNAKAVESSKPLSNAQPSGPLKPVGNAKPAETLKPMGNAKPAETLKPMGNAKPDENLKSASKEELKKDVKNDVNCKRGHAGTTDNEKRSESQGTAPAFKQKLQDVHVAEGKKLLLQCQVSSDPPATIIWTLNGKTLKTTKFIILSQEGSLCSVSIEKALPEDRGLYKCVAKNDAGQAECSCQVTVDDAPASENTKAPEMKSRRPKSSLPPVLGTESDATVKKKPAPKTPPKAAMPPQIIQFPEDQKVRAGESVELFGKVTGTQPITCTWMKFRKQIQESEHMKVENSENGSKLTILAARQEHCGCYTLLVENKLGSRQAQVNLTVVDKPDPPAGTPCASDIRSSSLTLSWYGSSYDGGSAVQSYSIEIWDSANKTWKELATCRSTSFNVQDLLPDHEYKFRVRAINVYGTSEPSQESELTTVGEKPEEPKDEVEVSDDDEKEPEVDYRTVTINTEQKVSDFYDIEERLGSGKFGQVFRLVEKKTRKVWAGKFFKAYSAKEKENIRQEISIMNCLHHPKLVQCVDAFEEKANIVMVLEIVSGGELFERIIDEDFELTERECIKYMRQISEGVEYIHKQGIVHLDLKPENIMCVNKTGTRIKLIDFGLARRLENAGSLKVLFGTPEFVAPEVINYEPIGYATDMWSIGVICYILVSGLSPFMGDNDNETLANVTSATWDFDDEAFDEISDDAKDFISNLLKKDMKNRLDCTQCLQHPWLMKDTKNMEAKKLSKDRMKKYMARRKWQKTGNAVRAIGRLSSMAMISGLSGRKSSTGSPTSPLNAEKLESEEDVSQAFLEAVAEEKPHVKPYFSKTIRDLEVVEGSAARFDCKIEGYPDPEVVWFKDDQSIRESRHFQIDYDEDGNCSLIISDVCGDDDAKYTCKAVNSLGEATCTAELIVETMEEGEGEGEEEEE
Source text: as §1

[7] = target: FGFR1 (Homo sapiens, UniProt P11362); test: HotSpot kinase assay; settings: read-out: % Enzyme Activity (relative to DMSO control), 10 uM
Source text: as §1

[8] = target: PIM1 (Homo sapiens, UniProt P11309); test: HotSpot kinase assay; settings: read-out: % Enzyme Activity (relative to DMSO control), 10 uM
Source text: as §1

[9] = target: FLT1/VEGFR1 (Homo sapiens, UniProt P17948); test: HotSpot kinase assay; settings: read-out: % Enzyme Activity (relative to DMSO control), 10 uM
Source text: as §1

[10] = target: CDK6/cyclin D3 (Homo sapiens, UniProt Q00534); test: HotSpot kinase assay; settings: read-out: % Enzyme Activity (relative to DMSO control), 10 uM
Source text: as §1

[11] = target: HPK1/MAP4K1 (Homo sapiens, UniProt Q92918); test: HotSpot kinase assay; settings: read-out: % Enzyme Activity (relative to DMSO control), 10 uM
Source text: as §1

[12] = target: PAK6 (Homo sapiens, UniProt Q9NQU5); test: HotSpot kinase assay; settings: read-out: % Enzyme Activity (relative to DMSO control), 10 uM
Source text: as §1

[13] = target: ULK2 (Homo sapiens, UniProt Q8IYT8); test: HotSpot kinase assay; settings: read-out: % Enzyme Activity (relative to DMSO control), 10 uM
Source text: as §1

[14] = target: ABL1 (Homo sapiens, UniProt P00519); test: HotSpot kinase assay; settings: read-out: % Enzyme Activity (relative to DMSO control), 10 uM
Source text: as §1

[15] = target: CDK2/cyclin A (Homo sapiens, UniProt P24941); test: HotSpot kinase assay; settings: read-out: % Enzyme Activity (relative to DMSO control), 10 uM
Source text: as §1

[16] = target: ALK1/ACVRL1 (Homo sapiens, UniProt P37023); test: HotSpot kinase assay; settings: read-out: % Enzyme Activity (relative to DMSO control), 10 uM
Sequence of ALK1/ACVRL1 (P37023 22-503): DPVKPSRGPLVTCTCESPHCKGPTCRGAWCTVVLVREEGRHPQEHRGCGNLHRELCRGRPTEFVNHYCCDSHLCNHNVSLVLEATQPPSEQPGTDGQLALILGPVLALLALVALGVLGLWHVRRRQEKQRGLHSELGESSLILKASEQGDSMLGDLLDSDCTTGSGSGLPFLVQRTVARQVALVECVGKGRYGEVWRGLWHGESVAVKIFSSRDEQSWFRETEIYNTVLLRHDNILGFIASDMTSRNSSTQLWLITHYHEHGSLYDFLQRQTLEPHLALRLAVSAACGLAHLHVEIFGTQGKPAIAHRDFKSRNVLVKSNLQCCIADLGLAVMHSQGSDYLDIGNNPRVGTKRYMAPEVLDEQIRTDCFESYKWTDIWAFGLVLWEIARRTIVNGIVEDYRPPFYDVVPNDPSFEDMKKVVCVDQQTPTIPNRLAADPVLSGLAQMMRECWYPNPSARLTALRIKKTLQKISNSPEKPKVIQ
Source text: as §1

[17] = target: c-MET (Homo sapiens, UniProt P08581); test: HotSpot kinase assay; settings: read-out: % Enzyme Activity (relative to DMSO control), 10 uM
Source text: as §1

[18] = target: KSR1 (Homo sapiens, UniProt Q8IVT5); test: HotSpot kinase assay; settings: read-out: % Enzyme Activity (relative to DMSO control), 10 uM
Sequence of KSR1 (Q8IVT5 whole entry): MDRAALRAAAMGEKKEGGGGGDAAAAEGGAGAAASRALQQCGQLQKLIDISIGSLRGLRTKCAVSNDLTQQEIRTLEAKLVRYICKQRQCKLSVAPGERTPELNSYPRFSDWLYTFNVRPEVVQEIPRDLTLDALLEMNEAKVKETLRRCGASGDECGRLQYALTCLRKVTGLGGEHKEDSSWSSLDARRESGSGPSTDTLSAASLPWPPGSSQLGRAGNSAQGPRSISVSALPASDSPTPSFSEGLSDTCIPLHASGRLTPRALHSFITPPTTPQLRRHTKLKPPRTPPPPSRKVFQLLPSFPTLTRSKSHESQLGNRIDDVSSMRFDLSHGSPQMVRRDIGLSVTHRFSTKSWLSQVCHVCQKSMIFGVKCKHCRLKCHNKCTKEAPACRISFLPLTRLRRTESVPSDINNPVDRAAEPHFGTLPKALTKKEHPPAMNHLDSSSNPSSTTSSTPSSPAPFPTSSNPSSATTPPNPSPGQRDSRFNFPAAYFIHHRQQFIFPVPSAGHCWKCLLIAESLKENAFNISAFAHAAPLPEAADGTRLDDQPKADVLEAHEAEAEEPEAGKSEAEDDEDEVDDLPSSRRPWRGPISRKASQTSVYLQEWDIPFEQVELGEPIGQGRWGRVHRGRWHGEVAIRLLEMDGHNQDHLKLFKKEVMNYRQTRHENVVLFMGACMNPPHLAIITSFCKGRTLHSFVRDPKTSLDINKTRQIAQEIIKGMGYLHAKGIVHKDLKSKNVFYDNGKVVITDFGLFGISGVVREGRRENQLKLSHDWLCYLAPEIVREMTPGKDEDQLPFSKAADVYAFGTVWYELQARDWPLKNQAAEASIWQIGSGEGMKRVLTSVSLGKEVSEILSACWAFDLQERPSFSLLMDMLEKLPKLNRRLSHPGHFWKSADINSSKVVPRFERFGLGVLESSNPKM
Source text: as §1

[19] = target: CDK18/cyclin Y (PCTK3) (Homo sapiens, UniProt Q07002); test: HotSpot kinase assay; settings: read-out: % Enzyme Activity (relative to DMSO control), 10 uM
Source text: as §1

[20] = target: ROCK1 (Homo sapiens, UniProt Q13464); test: HotSpot kinase assay; settings: read-out: % Enzyme Activity (relative to DMSO control), 10 uM
Source text: as §1

[21] = target: BRSK2 (Homo sapiens, UniProt Q8IWQ3); test: HotSpot kinase assay; settings: read-out: % Enzyme Activity (relative to DMSO control), 10 uM
Source text: as §1

[22] = target: LRRK2 (Homo sapiens, UniProt Q5S007); test: HotSpot kinase assay; settings: read-out: % Enzyme Activity (relative to DMSO control), 10 uM
Source text: as §1

[23] = target: EIF2AK4 (Homo sapiens, UniProt Q9P2K8); test: HotSpot kinase assay; settings: read-out: % Enzyme Activity (relative to DMSO control), 10 uM
Source text: as §1

[24] = target: P38d/MAPK13 (Homo sapiens, UniProt O15264); test: HotSpot kinase assay; settings: read-out: % Enzyme Activity (relative to DMSO control), 10 uM
Source text: as §1

[25] = target: PKG2/PRKG2 (Homo sapiens, UniProt Q13237); test: HotSpot kinase assay; settings: read-out: % Enzyme Activity (relative to DMSO control), 10 uM
Source text: as §1

[26] = target: EIF2AK2 (Homo sapiens, UniProt P19525); test: HotSpot kinase assay; settings: read-out: % Enzyme Activity (relative to DMSO control), 10 uM
Source text: as §1

[27] = target: JNK2 (Homo sapiens, UniProt P45984); test: HotSpot kinase assay; settings: read-out: % Enzyme Activity (relative to DMSO control), 10 uM
Source text: as §1

[28] = target: MAPKAPK2 (Homo sapiens, UniProt P49137); test: HotSpot kinase assay; settings: read-out: % Enzyme Activity (relative to DMSO control), 10 uM
Source text: as §1

[29] = target: ERK1 (Homo sapiens, UniProt P27361); test: HotSpot kinase assay; settings: read-out: % Enzyme Activity (relative to DMSO control), 10 uM
Sequence of ERK1 (P27361 whole entry): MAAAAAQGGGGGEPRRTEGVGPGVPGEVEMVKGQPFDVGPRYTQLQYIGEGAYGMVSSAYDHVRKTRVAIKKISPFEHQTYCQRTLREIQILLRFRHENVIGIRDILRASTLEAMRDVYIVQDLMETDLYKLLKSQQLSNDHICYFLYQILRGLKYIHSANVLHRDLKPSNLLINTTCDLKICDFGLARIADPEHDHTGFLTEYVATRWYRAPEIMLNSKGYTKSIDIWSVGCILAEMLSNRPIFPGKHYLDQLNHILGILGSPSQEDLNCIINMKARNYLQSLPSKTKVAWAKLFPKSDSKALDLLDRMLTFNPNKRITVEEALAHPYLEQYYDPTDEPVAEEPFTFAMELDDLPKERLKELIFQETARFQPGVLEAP
Source text: as §1

[30] = target: CK2a2 (Homo sapiens, UniProt P19784); test: HotSpot kinase assay; settings: read-out: % Enzyme Activity (relative to DMSO control), 10 uM
Source text: as §1

[31] = Pharmacokinetic analyses, oral once daily for 10 days; settings: for CAVG: 10th daily dose; for concentration at 0 h / concentration at 0.5 h / concentration at 1 h / concentration at 2 h / concentration at 4 h / concentration at 6 h / concentration at 8 h / concentration at 12 h / concentration at 24 h / AUC / CL/F / Cmax / Tmax / Vd/F / half-life: male, C57BL/6J, mouse, plasma; for concentration at 0 h / concentration at 0.5 h / concentration at 1 h / concentration at 2 h / concentration at 4 h / concentration at 6 h / concentration at 8 h / concentration at 12 h / concentration at 24 h: oral, DF-003 Conc. in plasma; for concentration at 0 h: 0 hours after 10th dosing; for concentration at 0.5 h: 0.5 hours after 10th dosing; for concentration at 1 h: 1 hour after 10th dosing; for concentration at 2 h: 2 hours after 10th dosing; for concentration at 4 h: 4 hours after 10th dosing; for concentration at 6 h: 6 hours after 10th dosing; for concentration at 8 h: 8 hours after 10th dosing; for concentration at 12 h: 12 hours after 10th dosing; for concentration at 24 h: 24 hours after 10th dosing; for AUC / CL/F / Cmax / Tmax / Vd/F / half-life: po
Procedure: Mice were housed in a specific pathogen-free (SPF) animal facility at Drug Farm (Shanghai, China) in individually ventilated cages on a 12 h light/dark cycle with a bedding of wood shavings and ad libitum access to rodent chow. […] Six 8 week-old male C57BL/6J mice from Zhejiang Vital River Laboratory Animal Technology Co., Ltd. (Zhejiang, China) were randomly assigned to 2 groups (3 animals/group). […] The oral dosing volume for all animals was 10 mL/kg body weight. Drinking water and certified rodent diet were available to animals ad libitum, except that animals were fasted 16 h prior to the last administration until 4 h after the last dosing. Blood samples at 0 (right before the last dosing), 0.5, 1, 2, 4, 6, 8, 12, and 24 h after the 10th dosing were collected from the tail vein and transferred into tubes containing K2-EDTA. The tubes were gently inverted several times to ensure mixing and immediately placed on wet ice. Plasma was obtained by centrifugation at 3200 × g at 4 °C for 10 min and stored at ≤ -60 °C until subsequent analysis. Twenty-four hours after the 10th dosing, the animals were euthanized by CO2 inhalation.

[32] = 3 mg/kg, 3 mg/kg, individual animals
[33] = 5 mg/kg, 5 mg/kg, individual animals

Compound `C#C[C@@](C)(c1ccc(Cl)cc1)c1csc(NC(=O)c2c(F)cc(N3CCNCC3)cc2F)n1` (stereo in doubt) [DF-003] has a remaining activity at 10 µM [1] of 94.2%, a remaining activity at 10 µM [2] of 30.3% and a remaining activity at 10 µM [3] of 39.1%. It also gave a remaining activity at 10 µM [4] of 45.3%, a remaining activity at 10 µM [5] of 66.3% and a remaining activity at 10 µM [6] of 68.4%. It also gave a remaining activity at 10 µM [7] of 68.8%, a remaining activity at 10 µM [8] of 74% and a remaining activity at 10 µM [9] of 79.2%. The remaining activity at 10 µM [10] was 79.4%, the remaining activity at 10 µM [11] was 83.3% and the remaining activity at 10 µM [12] was 84.2%. It also gave a remaining activity at 10 µM [13] of 86%, a remaining activity at 10 µM [14] of 87.7% and a remaining activity at 10 µM [15] of 88.3%. It also gave a remaining activity at 10 µM [16] of 89.1%, a remaining activity at 10 µM [17] of 90.7% and a remaining activity at 10 µM [18] of 91.5%. It also gave a remaining activity at 10 µM [19] of 92.3%, a remaining activity at 10 µM [20] of 94.8% and a remaining activity at 10 µM [21] of 96%. For the same compound, the remaining activity at 10 µM [22] was 99.2%, the remaining activity at 10 µM [23] was 101% and the remaining activity at 10 µM [24] was 104%. For the same compound, the remaining activity at 10 µM [25] was 105%, the remaining activity at 10 µM [26] was 105% and the remaining activity at 10 µM [27] was 107%. It also gave a remaining activity at 10 µM [28] of 108%, a remaining activity at 10 µM [29] of 115% and a remaining activity at 10 µM [30] of 128%. For the same compound, the CAVG ([31]; 3 mg/kg oral) was 75.6 ± 5.53 ng/mL, the CAVG ([31]; 5 mg/kg oral) was 164 ± 29.0 ng/mL and the “average time to Cmax (Tmax)” value ([31]; 3 and 5 mg/kg oral, 10th dose) was 2 to 2.67 h. The “DF-003 Conc. in tissues 24 hr after 10th dosing” value (“DF-003 Conc. in tissues 24 hr” for short) ([31]; Cerebral Cortex, 3 mg/kg, individual animals) was 1358 and 1241 and 1263, the “DF-003 Conc. in tissues 24 hr” value ([31]; Cerebral Cortex, 5 mg/kg, individual animals) was 2520 and 2846 and 2696 and the “DF-003 Conc. in tissues 24 hr” value ([31]; Optic Nerve, 3 mg/kg, 6 optic nerves from 3 mice of same dosing group combined into one sample) was 1104. For the same compound, the “DF-003 Conc. in tissues 24 hr” value ([31]; Optic Nerve, 5 mg/kg, 6 optic nerves from 3 mice of same dosing group combined into one sample) was 1615, the “DF-003 Conc. in tissues 24 hr” value ([31]; Retina, 3 mg/kg, individual animals) was 620 and 646 and 1356 and the “DF-003 Conc. in tissues 24 hr” value ([31]; Retina, 5 mg/kg, individual animals) was 1351 and 1933 and 1171. For the same compound, the concentration at 0 h [31, 32] was 46.4 ng/mL, the concentration at 0.5 h [31, 32] was 78.6 ng/mL and the concentration at 1 h [31, 32] was 110 ng/mL. It also gave a concentration at 2 h [31, 32] of 123 ng/mL, a concentration at 4 h [31, 32] of 115 ng/mL and a concentration at 6 h [31, 32] of 92 ng/mL. It also gave a concentration at 8 h [31, 32] of 99.9 ng/mL, a concentration at 12 h [31, 32] of 73.9 ng/mL and a concentration at 24 h [31, 32] of 19.5 ng/mL. For the same compound, the concentration at 0 h [31, 33] was 142 ng/mL, the concentration at 0.5 h [31, 33] was 168 ng/mL and the concentration at 1 h [31, 33] was 228 ng/mL. It also gave a concentration at 2 h [31, 33] of 218 ng/mL, a concentration at 4 h [31, 33] of 238 ng/mL and a concentration at 6 h [31, 33] of 174 ng/mL. It also gave a concentration at 8 h [31, 33] of 162 ng/mL, a concentration at 12 h [31, 33] of 122 ng/mL and a concentration at 24 h [31, 33] of 45.6 ng/mL. It also gave an AUC ([31]; 3 mg/kg) of 1820 ± 132 ng·h/mL, a CL/F ([31]; 3 mg/kg) of 27.6 ± 1.94 mL/min/kg and a Cmax ([31]; 3 mg/kg) of 160 ng/mL. The Tmax ([31]; 3 mg/kg) was 2 h, the Vd/F ([31]; 3 mg/kg) was 18.3 ± 1.55 L/kg and the half-life ([31]; 3 mg/kg) was 7.69 h. For the same compound, the AUC ([31]; 5 mg/kg) was 3940 ± 697 ng·h/mL, the CL/F ([31]; 5 mg/kg) was 21.6 ± 4.11 mL/min/kg and the Cmax ([31]; 5 mg/kg) was 310 ng/mL. For the same compound, the Tmax ([31]; 5 mg/kg) was 2.67 ± 1.15 h, the Vd/F ([31]; 5 mg/kg) was 16.5 ± 3.68 L/kg and the half-life ([31]; 5 mg/kg) was 8.81 h.
